One experiment deals with 3CL^pro. As to conditions: in vivo; cited from earlier work.

The text below walks through data of paper PMC8852625, “A Computer-Aided Approach for the Discovery of D-Peptides as Inhibitors of SARS-CoV-2 Main Protease” (Frontiers in Molecular Biosciences, 2022).

Where two headings read alike, the source gives them in different places.

As for `CC(C)(C)[C@H](NC(=O)C(F)(F)F)C(=O)N1C[C@H]2[C@@H]([C@H]1C(=O)N[C@H](C#N)C[C@@H]1CCNC1=O)C2(C)C` [PF-07321332], the “phase I clinical trial result” value in the experiment on 3CL^pro is “promising results”.
In the case of ACE-HIE-ALA-PRO-TRP-NME [4P3], in the experiment on SARS-CoV-2 3CL^pro (pH 7.2), the “inhibition (loss) of 3CL^pro activity” value was “more than 80%”, the “inhibition of 3CL^pro (in words)” value is recorded as “most potent” and the “residual activity of 3CL^pro” value is “below 20%”.
ACE-HIE-HIE-PRO-TYR-NME [4P4]: the “inhibition (loss) of 3CL^pro activity” value in the experiment on SARS-CoV-2 3CL^pro (20 μM peptide, 500 nM 3CL^pro, 30 min pre-incubation, 50 µM DABCYL-KTSAVLQ↓SGFRKME-EDANS, 30 min, 37°C, 20 mM Tris pH 7.2, 200 mM NaCl, 1 mM EDTA, 1 mM TCEP, fluorescence 360/460 nm, mean, n = 3) is listed as “more than 80%”. Moreover, the “residual activity of 3CL^pro” value in the experiment with SARS-CoV-2 3CL^pro (20 μM peptide, 500 nM 3CL^pro, 30 min pre-incubation, 50 µM fluorogenic substrate, 37°C, pH 7.2, mean, n = 3) was “below 20%”.
